The target in series [1] is Muscarinic acetylcholine receptor M2 (Homo sapiens) (UniProt P08172). The note with it: Compound concentration 10.0 uM.
The target in series [2] is Alpha-1D adrenergic receptor (Homo sapiens) (UniProt P25100). The note with it: Compound concentration 10.0 uM.
Series [3] deals with Muscarinic acetylcholine receptor M1 (Homo sapiens) (UniProt P11229). The note with it: Compound concentration 10.0 uM.
In series [4] the target is Alpha-2A adrenergic receptor (Homo sapiens) (UniProt P08913). To be noted: Compound concentration 10.0 uM.
Series [5] deals with Sigma intracellular receptor 2 (Homo sapiens, UniProt Q5BJF2). In words: GPCRScan assay: inhibition of Sigma 2. Set-up: radioligand conc. used [nm] 5.0, parental cells HEKT.
Series [6] deals with D(3) dopamine receptor (Homo sapiens) (UniProt P35462). In words: D3/HU Eurofins-Panlabs selectivity data (BI). To be noted: Compound concentration 10.0 uM.
Series [7] addresses Serotonin 2 (5-HT2) receptor (Rattus norvegicus) (UniProt P30994+P08909+P14842). In words: 5HT2/R Eurofins-Panlabs selectivity data (BI). The class given is protein assay. To be noted: Compound concentration 10.0 uM.
Series [8] deals with Gamma-aminobutyric acid receptor subunit alpha-1 (Rattus norvegicus) (UniProt P62813). In words: GABAA MUSCIMOL CENT Eurofins-Panlabs selectivity data (BI). The note with it: Compound concentration 10.0 uM.
For series [9], the target named is Glutamate receptor ionotropic, NMDA 1 (Rattus norvegicus) (UniProt P35439). Nature of the series: GLUTAMAT/R Eurofins-Panlabs selectivity data (BI). The note with it: Compound concentration 10.0 uM.
The target in series [10] is Sigma non-opioid intracellular receptor 1 (Homo sapiens) (UniProt Q99720). The note with it: Compound concentration 10.0 uM.
In series [11] the target is Adrenergic receptor alpha-2 (Rattus norvegicus) (UniProt P22086+P19328+P22909). In words: ALPHA2/R Eurofins-Panlabs selectivity data (BI). In kind it is protein assay. The note with it: Compound concentration 10.0 uM.
Series [12] deals with Muscarinic acetylcholine receptor (Rattus norvegicus) (UniProt P08482+P08483+P08485+P08911+P10980). Nature of the series: MUSCARIN/NS Eurofins-Panlabs selectivity data (BI). The class given is protein assay. The note with it: Compound concentration 10.0 uM.
For series [13], the target named is Voltage-dependent L-type calcium channel subunit alpha-1C (diltiazem site) (Rattus norvegicus, UniProt P22002). Nature of the series: CA+/DILSI/RA Eurofins-Panlabs selectivity data (BI). The note with it: compound concentration 10 uM, read-out: % Ctrl.
Series [14] addresses Serotonin 1 (5-HT1) receptor (Rattus norvegicus) (UniProt P28564+P30940+P19327+P28565). In words: 5HT1/R Eurofins-Panlabs selectivity data (BI). In kind it is protein assay. To be noted: Compound concentration 10.0 uM.
For series [15], the target named is Gamma-aminobutyric acid receptor subunit alpha-1 (Rattus norvegicus) (UniProt P62813). Nature of the series: GABAACL+ Eurofins-Panlabs selectivity data (BI). The note with it: Compound concentration 10.0 uM.
Series [16] concerns the target Small conductance calcium-activated potassium channel protein 1 (Rattus norvegicus) (UniProt P70606). Nature of the series: K+/SKCA Eurofins-Panlabs selectivity data (BI). To be noted: Compound concentration 10.0 uM.
For series [17], the target named is GABA-A receptor; anion channel (Rattus norvegicus) (UniProt O09028+P15431+P18506+P18508+P19969+P20236+P23574+P23576+P28471+P28473+P30191+P62813+P63079+P63138+Q91ZM7+Q9ES14). The note with it: Compound concentration 10.0 uM.
The target in series [18] is Sodium-dependent serotonin transporter (Homo sapiens) (UniProt P31645). In words: 5HTTRANS/HU Eurofins-Panlabs selectivity data (BI). To be noted: Compound concentration 10.0 uM.
For series [19], the target named is Acetylcholine receptor subunit alpha (Homo sapiens) (UniProt P02708). In words: NACH/H Eurofins-Panlabs selectivity data (BI). The note with it: Compound concentration 10.0 uM.
The next series is filed under the species Cavia porcellus. Nature of the series: ATRANS Eurofins-Panlabs selectivity data (BI). The note with it: Compound concentration 10.0 uM.
The target in series [20] is Histamine H1 receptor (Homo sapiens) (UniProt P35367). In words: H1/H Eurofins-Panlabs selectivity data (BI). The note with it: Compound concentration 10.0 uM.
The target of series [21] is Potassium voltage-gated channel subfamily A member 1 (Rattus norvegicus) (UniProt P10499). In words: K+/KA/R Eurofins-Panlabs selectivity data (BI). The note with it: Compound concentration 10.0 uM.
In series [22] the target is Voltage-dependent L-type calcium channel subunit alpha-1C (phenylalkylamine site) (Rattus norvegicus, UniProt P22002). Nature of the series: CA+/PAASITE Eurofins-Panlabs selectivity data (BI). The note with it: read-out: % Ctrl.
In series [23] the target is D(1A) dopamine receptor (Homo sapiens) (UniProt P21728). Nature of the series: D1/HU Eurofins-Panlabs selectivity data (BI). To be noted: Compound concentration 10.0 uM.
Series [24] has as its target Amine oxidase [flavin-containing] B (MAO-B) (Homo sapiens, UniProt P27338). In words: MAOB Eurofins-Panlabs selectivity data (BI). To be noted: compound concentration 10 uM, read-out: % Ctrl. On the set-up: mode of action inhibitor.
Series [25] concerns the target 5-hydroxytryptamine receptor 6 (Homo sapiens) (UniProt P50406). In words: 5HT6/HU Eurofins-Panlabs selectivity data (BI). To be noted: Compound concentration 10.0 uM.
Series [26] concerns the target Sodium/potassium-transporting ATPase subunit alpha-1 (Sus scrofa) (UniProt P05024). In words: ATP NA+/K+PI Eurofins-Panlabs selectivity data (BI). The note with it: Compound concentration 10.0 uM.
The target in series [27] is Gamma-aminobutyric acid receptor subunit alpha-1 (Rattus norvegicus) (UniProt P62813). In words: GABAACENTR Eurofins-Panlabs selectivity data (BI). To be noted: Compound concentration 10.0 uM.
Series [28] concerns the target Calcitonin-gene-related peptide receptor, CALCRL/RAMP1 (Homo sapiens) (UniProt O60894+Q16602). In words: CGRP/HU Eurofins-Panlabs selectivity data (BI). The class given is protein-complex assay. To be noted: Compound concentration 10.0 uM.
The species entered for a further series is Rattus norvegicus. To be noted: Compound concentration 10.0 uM.
Series [29] deals with Carbonic anhydrase 6 (Homo sapiens) (UniProt P23280). Nature of the series: CANHYDRASE Eurofins-Panlabs selectivity data (BI). The note with it: Compound concentration 10.0 uM.
In series [30] the target is Beta-3 adrenergic receptor (Homo sapiens) (UniProt P13945). To be noted: Compound concentration 10.0 uM.
In series [31] the target is T1, 5-hydroxytryptamine receptor 3A (Homo sapiens) (UniProt P46098).
T1 sequence (whole entry): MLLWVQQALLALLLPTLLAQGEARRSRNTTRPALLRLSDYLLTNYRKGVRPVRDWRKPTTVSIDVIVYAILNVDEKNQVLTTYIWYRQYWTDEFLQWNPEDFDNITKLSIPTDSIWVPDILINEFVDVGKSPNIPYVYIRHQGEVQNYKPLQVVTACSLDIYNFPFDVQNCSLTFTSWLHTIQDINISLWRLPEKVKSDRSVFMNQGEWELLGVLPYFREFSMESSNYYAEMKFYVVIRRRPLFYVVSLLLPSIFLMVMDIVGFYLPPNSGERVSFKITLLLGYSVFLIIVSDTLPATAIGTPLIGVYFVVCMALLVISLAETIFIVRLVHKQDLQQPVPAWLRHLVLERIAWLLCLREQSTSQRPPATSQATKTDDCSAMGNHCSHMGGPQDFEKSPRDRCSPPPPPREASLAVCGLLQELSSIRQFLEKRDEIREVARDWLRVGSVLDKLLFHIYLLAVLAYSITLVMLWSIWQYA
Nature of the series: 5HT3/HU Eurofins-Panlabs selectivity data (BI). The note with it: Compound concentration 10.0 uM.

In series [32] the target is Sodium-dependent noradrenaline transporter (Homo sapiens) (UniProt P23975). To be noted: Compound concentration 10.0 uM.
In series [33] the target is D(2) dopamine receptor (Homo sapiens) (UniProt P14416). Nature of the series: D2L/H Eurofins-Panlabs selectivity data (BI). To be noted: Compound concentration 10.0 uM.

Structures are written as SMILES.

Chain of Gamma-aminobutyric acid receptor subunit alpha-1 (Rattus norvegicus) (P62813 whole entry): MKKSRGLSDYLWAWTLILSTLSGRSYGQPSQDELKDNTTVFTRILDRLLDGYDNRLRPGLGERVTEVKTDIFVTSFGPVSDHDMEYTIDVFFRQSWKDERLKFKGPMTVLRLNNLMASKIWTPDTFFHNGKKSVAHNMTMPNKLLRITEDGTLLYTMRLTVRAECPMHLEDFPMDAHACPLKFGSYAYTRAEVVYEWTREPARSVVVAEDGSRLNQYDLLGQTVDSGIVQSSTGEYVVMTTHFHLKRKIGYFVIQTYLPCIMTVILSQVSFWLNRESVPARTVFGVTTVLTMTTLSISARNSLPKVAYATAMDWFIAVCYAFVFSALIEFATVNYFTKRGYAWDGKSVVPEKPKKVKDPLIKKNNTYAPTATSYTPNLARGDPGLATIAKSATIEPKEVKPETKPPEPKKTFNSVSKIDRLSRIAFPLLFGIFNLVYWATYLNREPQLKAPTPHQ
Chain of Voltage-dependent L-type calcium channel subunit alpha-1C (phenylalkylamine site) (P22002 whole entry): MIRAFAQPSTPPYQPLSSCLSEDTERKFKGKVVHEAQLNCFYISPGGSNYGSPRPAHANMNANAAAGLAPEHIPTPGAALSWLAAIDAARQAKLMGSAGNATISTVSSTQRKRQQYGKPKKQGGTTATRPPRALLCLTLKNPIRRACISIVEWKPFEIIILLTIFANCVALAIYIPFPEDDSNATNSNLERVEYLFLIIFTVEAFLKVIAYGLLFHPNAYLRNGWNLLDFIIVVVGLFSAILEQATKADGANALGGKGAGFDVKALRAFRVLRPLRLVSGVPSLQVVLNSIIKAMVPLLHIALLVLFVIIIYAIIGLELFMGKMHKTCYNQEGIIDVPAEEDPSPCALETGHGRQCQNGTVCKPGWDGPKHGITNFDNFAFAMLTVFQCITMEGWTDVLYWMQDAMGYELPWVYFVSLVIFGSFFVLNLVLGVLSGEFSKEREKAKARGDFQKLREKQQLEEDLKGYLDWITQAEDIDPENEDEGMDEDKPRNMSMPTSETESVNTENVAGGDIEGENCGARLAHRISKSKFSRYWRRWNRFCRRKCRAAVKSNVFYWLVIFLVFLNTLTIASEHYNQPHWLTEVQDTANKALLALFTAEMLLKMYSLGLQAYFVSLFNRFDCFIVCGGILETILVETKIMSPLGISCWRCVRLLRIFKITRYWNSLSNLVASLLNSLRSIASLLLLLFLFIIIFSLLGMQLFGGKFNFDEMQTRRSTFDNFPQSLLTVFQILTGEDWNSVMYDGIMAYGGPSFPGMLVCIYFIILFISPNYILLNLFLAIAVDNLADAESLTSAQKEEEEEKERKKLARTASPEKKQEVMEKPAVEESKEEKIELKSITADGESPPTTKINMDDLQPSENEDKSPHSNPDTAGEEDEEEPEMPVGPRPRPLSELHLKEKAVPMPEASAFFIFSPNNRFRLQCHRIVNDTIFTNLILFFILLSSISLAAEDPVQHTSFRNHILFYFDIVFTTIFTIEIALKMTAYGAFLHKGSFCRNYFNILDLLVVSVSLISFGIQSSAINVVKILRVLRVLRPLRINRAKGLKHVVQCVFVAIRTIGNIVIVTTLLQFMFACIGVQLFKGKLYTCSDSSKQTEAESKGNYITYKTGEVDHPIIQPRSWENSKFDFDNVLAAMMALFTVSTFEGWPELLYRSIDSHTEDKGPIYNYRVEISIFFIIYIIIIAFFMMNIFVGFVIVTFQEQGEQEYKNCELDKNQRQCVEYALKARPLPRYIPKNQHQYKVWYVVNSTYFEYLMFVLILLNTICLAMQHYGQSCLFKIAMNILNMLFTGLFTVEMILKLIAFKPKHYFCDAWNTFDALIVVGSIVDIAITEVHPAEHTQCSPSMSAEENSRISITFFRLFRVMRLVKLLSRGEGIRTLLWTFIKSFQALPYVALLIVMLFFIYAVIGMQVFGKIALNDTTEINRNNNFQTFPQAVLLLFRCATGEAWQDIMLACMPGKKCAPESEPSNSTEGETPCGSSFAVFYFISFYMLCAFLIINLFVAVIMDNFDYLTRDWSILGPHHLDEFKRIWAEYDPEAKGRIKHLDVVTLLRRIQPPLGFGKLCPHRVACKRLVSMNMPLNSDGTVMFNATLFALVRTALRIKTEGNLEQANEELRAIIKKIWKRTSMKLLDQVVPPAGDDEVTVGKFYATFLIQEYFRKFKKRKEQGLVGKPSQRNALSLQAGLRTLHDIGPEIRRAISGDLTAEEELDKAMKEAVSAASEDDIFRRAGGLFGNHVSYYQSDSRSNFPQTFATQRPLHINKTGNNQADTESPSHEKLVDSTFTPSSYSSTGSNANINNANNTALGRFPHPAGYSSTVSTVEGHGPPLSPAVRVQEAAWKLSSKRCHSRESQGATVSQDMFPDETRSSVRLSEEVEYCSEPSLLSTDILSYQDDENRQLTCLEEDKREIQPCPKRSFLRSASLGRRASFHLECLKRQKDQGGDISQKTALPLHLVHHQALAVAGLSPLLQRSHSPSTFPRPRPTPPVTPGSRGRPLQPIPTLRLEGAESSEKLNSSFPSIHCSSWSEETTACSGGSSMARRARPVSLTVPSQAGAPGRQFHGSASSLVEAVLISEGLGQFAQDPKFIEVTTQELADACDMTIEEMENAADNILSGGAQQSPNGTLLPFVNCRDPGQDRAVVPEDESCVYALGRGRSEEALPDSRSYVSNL
Chain of Sigma intracellular receptor 2 (Q5BJF2 whole entry): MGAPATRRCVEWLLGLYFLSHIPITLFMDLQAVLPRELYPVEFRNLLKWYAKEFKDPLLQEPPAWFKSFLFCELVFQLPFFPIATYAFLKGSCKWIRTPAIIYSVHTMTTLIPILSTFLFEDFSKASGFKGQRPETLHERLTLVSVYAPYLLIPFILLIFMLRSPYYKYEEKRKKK
Chain of D(1A) dopamine receptor (Homo sapiens) (P21728 whole entry): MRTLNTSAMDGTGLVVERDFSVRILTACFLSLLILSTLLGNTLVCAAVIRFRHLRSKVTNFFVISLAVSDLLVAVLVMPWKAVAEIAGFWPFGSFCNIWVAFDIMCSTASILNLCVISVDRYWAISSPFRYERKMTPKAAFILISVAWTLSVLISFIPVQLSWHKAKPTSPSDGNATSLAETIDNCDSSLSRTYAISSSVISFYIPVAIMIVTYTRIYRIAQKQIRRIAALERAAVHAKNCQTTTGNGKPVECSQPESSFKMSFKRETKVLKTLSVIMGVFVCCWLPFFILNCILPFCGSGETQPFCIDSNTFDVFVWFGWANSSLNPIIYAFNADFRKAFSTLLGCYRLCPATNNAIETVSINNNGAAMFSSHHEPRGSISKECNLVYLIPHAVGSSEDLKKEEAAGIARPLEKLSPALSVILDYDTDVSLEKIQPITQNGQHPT
Chain of D(2) dopamine receptor (Homo sapiens) (P14416 whole entry): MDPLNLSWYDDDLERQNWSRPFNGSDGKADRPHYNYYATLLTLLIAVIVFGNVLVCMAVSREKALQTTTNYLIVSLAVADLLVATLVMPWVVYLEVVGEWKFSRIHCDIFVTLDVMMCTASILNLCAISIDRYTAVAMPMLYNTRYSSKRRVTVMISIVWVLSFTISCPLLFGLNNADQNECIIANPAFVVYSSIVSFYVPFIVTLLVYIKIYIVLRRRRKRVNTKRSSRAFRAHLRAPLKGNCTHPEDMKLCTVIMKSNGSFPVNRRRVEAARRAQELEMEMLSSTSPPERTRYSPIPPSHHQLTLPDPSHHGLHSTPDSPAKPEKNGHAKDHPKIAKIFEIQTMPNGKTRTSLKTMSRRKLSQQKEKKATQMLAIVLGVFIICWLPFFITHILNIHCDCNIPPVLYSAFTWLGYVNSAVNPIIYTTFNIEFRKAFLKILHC
Chain of Voltage-dependent L-type calcium channel subunit alpha-1C (diltiazem site) (P22002 whole entry): as the sequence (P22002 whole entry) above
Chain of Beta-3 adrenergic receptor (Homo sapiens) (P13945 whole entry, looked up): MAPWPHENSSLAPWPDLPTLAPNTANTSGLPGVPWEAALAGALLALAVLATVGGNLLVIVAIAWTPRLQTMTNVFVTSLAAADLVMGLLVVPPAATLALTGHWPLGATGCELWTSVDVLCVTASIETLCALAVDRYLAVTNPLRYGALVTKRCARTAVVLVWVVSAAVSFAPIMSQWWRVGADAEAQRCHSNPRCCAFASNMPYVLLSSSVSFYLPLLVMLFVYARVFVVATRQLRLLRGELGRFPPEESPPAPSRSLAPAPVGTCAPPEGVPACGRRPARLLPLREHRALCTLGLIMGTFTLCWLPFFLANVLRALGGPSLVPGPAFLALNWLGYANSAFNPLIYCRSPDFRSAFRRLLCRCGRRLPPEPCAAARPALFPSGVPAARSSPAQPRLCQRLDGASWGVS
Chain of Amine oxidase [flavin-containing] B (MAO-B) (P27338 whole entry): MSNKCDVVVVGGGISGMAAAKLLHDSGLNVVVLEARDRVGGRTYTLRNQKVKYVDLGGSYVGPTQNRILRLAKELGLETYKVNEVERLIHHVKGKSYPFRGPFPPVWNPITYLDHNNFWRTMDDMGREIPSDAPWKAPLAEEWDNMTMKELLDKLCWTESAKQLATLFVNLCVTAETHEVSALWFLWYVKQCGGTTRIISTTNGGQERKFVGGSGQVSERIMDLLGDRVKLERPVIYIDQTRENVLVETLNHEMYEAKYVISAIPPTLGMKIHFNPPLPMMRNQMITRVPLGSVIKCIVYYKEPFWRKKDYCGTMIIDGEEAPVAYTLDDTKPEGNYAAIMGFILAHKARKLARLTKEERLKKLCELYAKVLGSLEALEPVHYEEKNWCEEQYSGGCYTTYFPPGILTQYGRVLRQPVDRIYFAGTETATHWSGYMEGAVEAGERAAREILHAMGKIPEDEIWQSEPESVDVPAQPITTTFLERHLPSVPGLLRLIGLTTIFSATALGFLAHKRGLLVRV
Chain of Carbonic anhydrase 6 (Homo sapiens) (P23280 whole entry): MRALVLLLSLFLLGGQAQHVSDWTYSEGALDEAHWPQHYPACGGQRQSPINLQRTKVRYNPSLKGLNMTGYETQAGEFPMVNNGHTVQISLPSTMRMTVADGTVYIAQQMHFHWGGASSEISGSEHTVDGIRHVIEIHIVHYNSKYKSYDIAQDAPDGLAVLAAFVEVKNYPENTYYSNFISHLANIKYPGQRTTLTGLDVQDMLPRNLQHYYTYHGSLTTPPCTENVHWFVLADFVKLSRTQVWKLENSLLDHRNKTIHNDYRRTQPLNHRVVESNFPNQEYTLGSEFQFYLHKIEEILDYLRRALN

Turning to `C[C@@]1(Cc2ccc(C#N)cc2)C(=O)N(c2cc(Cl)cc(Cl)c2)c2ncc(C(=O)NC3(c4nc(C5CCC5)no4)CC3)n21` [BI 9446], the inhibition is -8.35% in series [1], 8.28% in series [2], -8.37% in series [3] and 12.1% in series [4]. The figures for the Ki in series [5] (read-out: Ki) and in series [5] (read-out: pKi (converted)) were 558 nM and 507 nM, respectively.
Take `C[C@H](NC(=O)c1cnc2n1[C@](C)(Cc1ccc(C#N)cc1)C(=O)N2c1cc(Cl)c(F)c(Cl)c1)C(=O)NC1(c2ccccn2)CC1` [BI 1950]: the residual activity in series [6] was 88%; in [7] it was 98%; in series [8] it was 96%; in series [9], 92%; in [11], 88%; in [12], 109%. The residual activity was 100% in series [14]; 73% in series [15]; 108% in series [16]; 119% in series [18]; 112% in series [19]; 92% in the series listed under Cavia porcellus. Besides, the residual activity in series [20] was 109%; in series [21], 92%; in [23], 92%; in series [25], 102%; in series [26], 109%; in series [27], 99%. In addition, the residual activity is 105% in [28], 86% in series [29], 134% in series [31] and 115% in [33]. The inhibition in series [10] is -6.44%; in series [17] it was 4.9%; in the series filed under Rattus norvegicus, 13.1%; in [30], 12.4%; in series [32] it was -2.81%. Also, the activity at 10 µM in series [13] was 69% (not active); in series [22] (compound concentration 10 uM), 49.5%; in [24], 101% (not active). For the same molecule, in series [22] (compound concentration 0.03 uM), the activity at 0.03 µM is given as 109% (not active). The activity at 0.1 µM in [22] (compound concentration 0.1 uM) was 110% (not active). For the same molecule, the activity at 0.3 µM in [22] (compound concentration 0.3 uM) was 102% (not active). Further, the activity at 1 µM in series [22] (compound concentration 1 uM) was 86% (not active). The activity at 3 µM in series [22] (compound concentration 3 uM) is 76% (not active).

The inhibition is the change of the read-out against control, counted positive when it falls.
